# Laboratory results published in PMC7336998, “Discovery of secondary sulphonamides as IDO1 inhibitors with potent antitumour effects in vivo” (Journal of Enzyme Inhibition and Medicinal Chemistry, 2020).
# “Also recorded” adds a separate entry of the source.
# How the values were obtained:
# HeLa cells = assay: HeLa cell viability by MTT at the end of the IDO1/kynurenine assay; format: cell-based, human; conditions: under the experimental conditions of the IDO1 assay
# Excerpt: It is well known that IDO1 is broadly expressed in human cancers and is induced by pro-inflammatory cytokines, such as interferon gamma (IFN-γ) and tumour necrosis factor alpha (TNF-α)[41]. Here we utilised a human cervical cancer cell line HeLa that endogenously expresses IDO1 upon IFN-γ treatment to evaluate the IDO1 inhibitory activity of the synthesised compounds by measuring kynurenine secreted into the media. This cell-based assay, as a rapid and simple method for determination IDO1/kynurenine, is closely related to the potency of the enzyme assay and has been widely used to identify various IDO1 inhibitors[19]^,[23]^,[29]^,[42]. In addition, cytotoxic compounds can reduce cell viability, which will decrease the IDO1 levels and then lower the conversion of tryptophan to kynurenine. Thus, we also employed this cellular assay to detect false positive IDO1 inhibitors and cytotoxic compounds by measuring HeLa cell viability. Clinical candidate navoximod was used as an assay control.
# Furthermore, the viability of HeLa cells was evaluated by the MTT method at the end of the assay.
# CT26 colon carcinoma = CT26 colon carcinoma xenograft in immunocompetent BALB/c mice (tumour growth, H&E, IHC, TUNEL, spleen FACS); format: in vivo
# Experimental: BALB/c mice (6–8 weeks old, 18–22 g) were supplied by Model Animal Research Centre of Nanjing University (Nanjing, China). Mice were maintained under standard specific-pathogen-free (SPF) conditions (21 ± 2 °C and 12-h light: dark cycle). Animal welfare and experimental procedures were carried out strictly in accordance with the Guide for the Care and Use of Laboratory Animals (The Ministry of Science and Technology of China, 2006) and the related ethical regulations of our university. All efforts were made to minimise animals’ suffering and to reduce the number of animals used. Mouse colon cancer cells (CT26) and melanoma cells (B16F1) were cultured and collected by centrifugation (1000 rpm, 5 min) and washed twice with ice-cold PBS. Then cells were diluted to 1 × 10^7/ml and 1 × 10^6 CT26/B16F1 cells (in 0.1 ml PBS) were injected subcutaneously into the right flanks of mice. All mice formed tumours three days after injection. Then mice were randomly distributed into five groups (n = 10/8) according to tumour volumes. 5d ([…], 12.5 mg/kg) were administered (i.g) to each group respectively every day. 5-FU (25 mg/kg) and Cis-platinum (1 mg/kg) were administered (i.p) every three days. Tumour length and tumour width were measured with a Vernier calliper every three days. Tumour volumes were measured and calculated using the equation volume = a × b^2/2, where “a” is the maximal […] and “b” is maximal orthogonal width. After the administration were completed, mice were weighed, euthanized, and tumours were removed and the weight were taken.
# For immunohistochemistry staining, the sections were deparaffinized, rehydrated, and washed in 1% PBS-Tween 20, and then treated with 2% hydrogen peroxide, blocked with 3% goat serum (Life Technology, 16210–064) and incubated for 2 h at room temperature with specific primary antibodies. Then the slides were incubated with streptavidin-HRP (Shanghai Gene Company, GK500705) for 40 min, then stained with DAB (Shanghai Gene Company, GK500705) substrate and counter-stained with haematoxylin. Images were acquired by microscopy (Olympus IX51).
# Given that it was the most prominent inhibitor in vitro, we chose compound 5d for further pharmacodynamic evaluation in vivo. Bowel cancer is the third leading cause of cancer in the world, thus we first evaluated the efficacy of compound 5d on the growth of murine CT26 colon carcinoma xenograft model in immunocompetent BALB/c mice. Fluorouracil (5-FU) is one of the most commonly used drugs to different cancers including bowel cancer, and was used as the positive control. The CT26 tumour-bearing mice were treated with 5d (3.125, 6.25, 12.5 mg/kg, i.g, every day) or 5-FU (25 mg/kg, i.p, […]). Tumour volumes were measured every two days for 14 days.
# Figure 7. Compound 5d suppressed colon cancer growth in immunocompetent mice. 1 × 10^6 CT26 cells were transplanted subcutaneously into the armpit of the BALB/c mice. Three days after transplantation, mice were randomly allocated to vehicle control or treatment groups (n = 10). Drugs were administered on days 1–14. Tumour volume (A) and mice body weight (B) were recorded. After sacrifice, solid tumours were separated and weighed (C, D). Data represent mean ± SEM, n = 10, *p < 0.05, **p < 0.01 vs vehicle.
# In order to further observe morphological changes in tumour tissues after administration of compound 5d, the tumour tissue sections obtained from the BALB/c mice bearing CT26 colorectal tumours were stained with haematoxylin-eosin (H&E) to highlight different tissue structures, such as the nucleus and cytoplasm.
# Then, to understand the mechanism of tumour cell death, we detected the level of proliferating cell nuclear antigen (PCNA) protein and tumour cell apoptosis by immunohistochemistry (IHC) and terminal deoxynucleotidyl transferase dUTP nick end labelling (TUNEL) experiments, respectively. […]
# [1] = molecular target: T1, IDO1 protein in HeLa cells (Homo sapiens, UniProt P14902); assay: Cellular thermal shift assay (CETSA); format: binding; conditions: IFN-γ 100 ng/mL 24 h, compound 2 h, 43-70 °C, Western blot
# T1 construct: a human cervical cancer cell line HeLa that endogenously expresses IDO1 upon IFN-γ treatment; endogenous in cells; host or cells: HeLa cells treated with human IFN-γ
# Experimental: HeLa cells were seeded in 6-well culture plates at a density of 2 × 10^5 per well. On the next day, human IFN-γ (100 ng/mL) were added and incubated for 24 h, and then the cells were treated with 5d for 2 h. At the end of incubation, cells collected and subjected to CETSA assay. Briefly, incubated cells were equally divided into 10 parts, each part was heated for 3 min under different temperature (43, 46, 49, 52, 55, 58, 61, 64, 67, and 70 °C), and then the heated cells were kept at −80 °C for 12 h, then at room temperature for 5 min, and the process repeated one more time. After that, cell lysates were extracted by centrifugation at 20,000 × g, 20 min. Levels of IDO1 protein were assessed by Western blot analysis.
# The cellular thermal shift assay (CETSA) is usually used to identify compounds and their potential targets. CESTA can detect the target engagement of drugs in a cellular context based on the biophysical principle of ligand-induced thermal stabilisation of target proteins. To this end, we further employed the CETSA assay to detect whether compound 5d could directly bind to the target protein IDO1 in HeLa cells.
# Figure 6. Compound 5d could bind to IDO1 protein in HeLa cells. HeLa cells were treated with human IFN-γ (100 ng/mL) for 24 h, and then treated with 5d for 2 h. […] The levels of IDO1 protein were assessed by Western blot analysis.
# [2] = BALB/c mice, 12.5 mg/kg i.g, every day, 14 days
# [3] = CT26 tumour tissue, BALB/c mice, 3.125-12.5 mg/kg i.g
# T1 sequence (P14902 whole entry): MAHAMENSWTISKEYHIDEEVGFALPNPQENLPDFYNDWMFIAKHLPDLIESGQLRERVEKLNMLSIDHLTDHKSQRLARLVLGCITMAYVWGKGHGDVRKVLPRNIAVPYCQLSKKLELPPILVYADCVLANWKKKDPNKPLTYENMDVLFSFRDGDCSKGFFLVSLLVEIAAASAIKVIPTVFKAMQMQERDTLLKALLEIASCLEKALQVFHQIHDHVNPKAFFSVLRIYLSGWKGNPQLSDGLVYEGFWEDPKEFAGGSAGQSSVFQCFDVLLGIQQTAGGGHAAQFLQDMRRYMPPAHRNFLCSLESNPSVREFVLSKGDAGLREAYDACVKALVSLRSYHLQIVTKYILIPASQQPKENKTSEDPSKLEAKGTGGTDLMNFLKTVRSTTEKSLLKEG
smiles,measurement,setting,value
"C=CC(=O)Nc1ccc(S(=O)(=O)NCc2cccc(Cl)c2)cc1 [5d, N-(4-(N-(3-Chlorobenzyl)sulfamoyl)phenyl)acrylamide]",HeLa cell viability,HeLa cells,without affecting the cell viability
same,body weight of the mice,"CT26 colon carcinoma; 14-day treatment, vs vehicle group",no significant change in body weight
same,reduction of average tumour weight,CT26 colon carcinoma; [2],37.5%
same,reduction of tumour volume,CT26 colon carcinoma; [2],35.9%
same,tumour growth,"CT26 colon carcinoma; BALB/c mice, 3.125, 6.25, 12.5 mg/kg, i.g, every day, 14 days, vs vehicle",significantly suppressed the growth of tumour in a dose-dependent manner
same,number of tumour cells (H&E staining),CT26 colon carcinoma; [3],decreased the number of tumour cells
same,tumour cell apoptosis (TUNEL),CT26 colon carcinoma; [3],significantly induced the tumour cell apoptosis in a dose-dependent manner
same,expression of IFN-γ (IHC),"CT26 colon carcinoma; CT26 tumour tissue, BALB/c mice, 3.125-12.5 mg/kg i.g, vs vehicle",increased the expression of IFN-γ in a dose-dependent manner
same,granzyme B levels (IHC),"CT26 colon carcinoma; CT26 tumour tissue, BALB/c mice, all doses",elevated granzyme B levels
same,FoxP3+ Treg cells in spleen (FACS),"CT26 colon carcinoma; CT26 tumour-bearing mice, 3.125 mg/kg",4.79%
same,FoxP3+ Treg cells in spleen (FACS),"CT26 colon carcinoma; CT26 tumour-bearing mice, 6.25 mg/kg",4.13%
same,FoxP3+ Treg cells in spleen (FACS),"CT26 colon carcinoma; CT26 tumour-bearing mice, 12.5 mg/kg",2.62%
same,number of FoxP3+ Treg cells in spleen (in words),"CT26 colon carcinoma; CT26 tumour-bearing mice, 3.125-12.5 mg/kg",decreased the number of FoxP3^+ Treg cells in a dose-dependent manner
same,reduction of FoxP3+ Treg cells compared with the vehicle group,"CT26 colon carcinoma; spleen, high dose group",2.4 fold
same,thermal stability of IDO1 protein,[1],improve the thermal stability of IDO1 protein; also recorded: still maintained the protein stability at 55 °C
